Results on 16 compounds are retold here after US20240124450A1, “Novel SIK Inhibitors” (Pfizer Inc., priority 2022, published 2024).

Assay [1] concerns the target SIK3 (Homo sapiens (Human), UniProt Q9Y2K2). The experiment in a line: Pan SIK MS IC50 enzyme assay (SIK3). It is filed as biochemical. As to conditions: 1 mM ATP, substrate peptide AQT0508, LCMS/MS detection. The protocol: (§1) Enzyme Assay: Pan SIK MS IC50 Assay
(§2) Salt Induced Kinase (SIK) activity is determined by measuring the effect of a test agent on the activity of the appropriate SIK enzyme to phosphorylate its corresponding substrate. […] The phosphorylated substrate product resulting from the kinase reaction is detected by LCMS/MS, and the area under the peak curve correlates with kinase activity. […] The plates are spun at 1000 rpm for 30 seconds to ensure compounds are at the bottom of the well before removing foil covers. 0.15 μL HPE (assay std) and ZPE (DMSO) are added to the ARP using an HP D300 dispenser. Plates are spun again at 1000 rpm for 30 seconds. […] Plates are spun at 1000 rpm for 30 seconds. Plates are then sealed and incubated at RT for 10 minutes. Following incubation, 5 μL of 5× peptide reagent is added with a Multidrop Combi and designated small volume cassette to initiate the kinase reaction. Plates are spun at 1000 rpm for 30 seconds. Plates are then sealed and incubated at RT for 90 minutes. The assay is stopped by the addition of 5 μl of 120 mM EDTA added with a Multidrop Combi and designated small volume cassette (20 mM final concentration). Plates are spun at 1000 rpm for 30 seconds. 10 μl of the final reaction mix from each of the three individual enzyme plates are transferred by a Platemate Plus to the same corresponding 96 well deepwell plate containing 70 μl Water/Methanol (85/15%) for multiplex MS detection ([…]). Using Activity Base (ABase), an idbs data analysis software tool, the reported area ratio unit data is associated to compound, batch and dose information, the data is evaluated for quality, and the percent inhibition of each well is calculated. The data from each Max effect/HPE and Min effect/ZPE control wells are assessed, and outliers are excluded from all further calculations. The mean and standard deviation of the HPE and ZPE are then calculated for each plate, along with the Z Prime. The compound data is converted into % effect, using the average ZPE and HPE controls as 0% and 100% activity, respectively.

The target of assay [2] is SIK1 (Homo sapiens (Human), UniProt P57059). Nature of the assay: Pan SIK MS IC50 enzyme assay (SIK1). The class given is biochemical. Particulars: 1 mM ATP, substrate peptide AQT0868, LCMS/MS detection. How it is done:
as §1, §2

Assay [3] concerns IL10 release from human monocyte derived macrophages stimulated with LPS. The experiment in a line: SIK macrophage cytokine assay, increase of IL10 release. The class given is cell-based. Particulars: Macrophage, 1 ng/mL LPS, 4 hours, HTRF. How it is done:
(§3) Cytokine Assays: SIK Macrophage Assay Cytokine activity is determined by measuring the effect of a test agent on the inhibitory release of the cytokine TNFα and the increasing release of the cytokine IL10 from human monocyte derived macrophages (human macrophages) stimulated with lipopolysaccharide (LPS). At the time of assay, human macrophages (CGPS group Pfizer Groton, CT) are removed from cryopreservation, thawed quickly at 37° C., diluted in thaw medium (OptiMEM—Gibco medium, 10% heat inactivated fetal bovine serum (HIFBS)), and then centrifuged at 200×g for 10 minutes. […] After ˜60 minutes in an incubator at 37° C. in a humidified environment in 5% carbon dioxide the cells are stimulated by the addition of 5 μL of LPS (10 ng/mL; Sigma) and the assay plate is returned to an incubator at 37° C. in a humidified environment in 5% carbon dioxide for 4 hours. […] The final concentration of DMSO in the assay is approximately 0.1%. After 4 hours, the assay plate is removed from the incubator and centrifuged at 1500 rpm for 10 minutes. A portion of the resulting cell supernatant is then used to determine the amount of IL-10 and TNFα in each well. Cytokine measurements are made using human IL-10 and TNFα HTRF assay kits (Perkin Elmer) following the manufacturer's assay protocol.

In assay [4] the target is SIK2 (Homo sapiens (Human), UniProt Q9H0K1). Nature of the assay: Pan SIK MS IC50 enzyme assay (SIK2). The class given is biochemical. Particulars: 1 mM ATP, substrate peptide AQT0252, LCMS/MS detection. The protocol:
as §1, §2

In assay [5] the test system is TNFα release from human monocyte derived macrophages stimulated with LPS. Nature of the assay: SIK macrophage cytokine assay, inhibition of TNFα release. The class given is cell-based. Particulars: Macrophage, 1 ng/mL LPS, 4 hours, HTRF, read-out: TNFa IC50. The protocol:
as §3

SIK2, sequence (Q9H0K1 whole entry, species assumed): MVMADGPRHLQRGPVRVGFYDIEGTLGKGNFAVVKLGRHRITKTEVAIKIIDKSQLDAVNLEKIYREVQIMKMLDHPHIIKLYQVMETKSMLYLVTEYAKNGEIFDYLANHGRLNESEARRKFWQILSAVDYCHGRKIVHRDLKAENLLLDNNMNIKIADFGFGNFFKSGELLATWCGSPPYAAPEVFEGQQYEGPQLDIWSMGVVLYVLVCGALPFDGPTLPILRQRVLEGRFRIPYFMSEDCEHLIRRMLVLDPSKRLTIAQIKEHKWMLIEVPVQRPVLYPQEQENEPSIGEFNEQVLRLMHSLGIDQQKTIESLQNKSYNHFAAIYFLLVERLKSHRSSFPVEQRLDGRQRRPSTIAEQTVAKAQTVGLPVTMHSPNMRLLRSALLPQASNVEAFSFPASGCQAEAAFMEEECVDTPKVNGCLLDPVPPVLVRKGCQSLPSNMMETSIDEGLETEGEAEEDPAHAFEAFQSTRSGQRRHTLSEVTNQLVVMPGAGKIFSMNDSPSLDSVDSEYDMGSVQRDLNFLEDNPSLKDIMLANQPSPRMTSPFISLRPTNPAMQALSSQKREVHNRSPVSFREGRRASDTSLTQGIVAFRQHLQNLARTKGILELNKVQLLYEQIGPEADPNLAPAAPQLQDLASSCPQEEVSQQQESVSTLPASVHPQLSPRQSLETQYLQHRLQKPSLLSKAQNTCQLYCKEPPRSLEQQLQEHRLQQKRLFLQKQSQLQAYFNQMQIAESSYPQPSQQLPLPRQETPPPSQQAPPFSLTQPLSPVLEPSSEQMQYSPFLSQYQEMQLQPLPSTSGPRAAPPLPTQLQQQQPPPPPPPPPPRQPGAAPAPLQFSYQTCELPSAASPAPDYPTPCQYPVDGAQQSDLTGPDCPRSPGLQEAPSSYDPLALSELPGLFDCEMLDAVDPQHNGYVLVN
SIK3, sequence (Q9Y2K2 whole entry, species assumed): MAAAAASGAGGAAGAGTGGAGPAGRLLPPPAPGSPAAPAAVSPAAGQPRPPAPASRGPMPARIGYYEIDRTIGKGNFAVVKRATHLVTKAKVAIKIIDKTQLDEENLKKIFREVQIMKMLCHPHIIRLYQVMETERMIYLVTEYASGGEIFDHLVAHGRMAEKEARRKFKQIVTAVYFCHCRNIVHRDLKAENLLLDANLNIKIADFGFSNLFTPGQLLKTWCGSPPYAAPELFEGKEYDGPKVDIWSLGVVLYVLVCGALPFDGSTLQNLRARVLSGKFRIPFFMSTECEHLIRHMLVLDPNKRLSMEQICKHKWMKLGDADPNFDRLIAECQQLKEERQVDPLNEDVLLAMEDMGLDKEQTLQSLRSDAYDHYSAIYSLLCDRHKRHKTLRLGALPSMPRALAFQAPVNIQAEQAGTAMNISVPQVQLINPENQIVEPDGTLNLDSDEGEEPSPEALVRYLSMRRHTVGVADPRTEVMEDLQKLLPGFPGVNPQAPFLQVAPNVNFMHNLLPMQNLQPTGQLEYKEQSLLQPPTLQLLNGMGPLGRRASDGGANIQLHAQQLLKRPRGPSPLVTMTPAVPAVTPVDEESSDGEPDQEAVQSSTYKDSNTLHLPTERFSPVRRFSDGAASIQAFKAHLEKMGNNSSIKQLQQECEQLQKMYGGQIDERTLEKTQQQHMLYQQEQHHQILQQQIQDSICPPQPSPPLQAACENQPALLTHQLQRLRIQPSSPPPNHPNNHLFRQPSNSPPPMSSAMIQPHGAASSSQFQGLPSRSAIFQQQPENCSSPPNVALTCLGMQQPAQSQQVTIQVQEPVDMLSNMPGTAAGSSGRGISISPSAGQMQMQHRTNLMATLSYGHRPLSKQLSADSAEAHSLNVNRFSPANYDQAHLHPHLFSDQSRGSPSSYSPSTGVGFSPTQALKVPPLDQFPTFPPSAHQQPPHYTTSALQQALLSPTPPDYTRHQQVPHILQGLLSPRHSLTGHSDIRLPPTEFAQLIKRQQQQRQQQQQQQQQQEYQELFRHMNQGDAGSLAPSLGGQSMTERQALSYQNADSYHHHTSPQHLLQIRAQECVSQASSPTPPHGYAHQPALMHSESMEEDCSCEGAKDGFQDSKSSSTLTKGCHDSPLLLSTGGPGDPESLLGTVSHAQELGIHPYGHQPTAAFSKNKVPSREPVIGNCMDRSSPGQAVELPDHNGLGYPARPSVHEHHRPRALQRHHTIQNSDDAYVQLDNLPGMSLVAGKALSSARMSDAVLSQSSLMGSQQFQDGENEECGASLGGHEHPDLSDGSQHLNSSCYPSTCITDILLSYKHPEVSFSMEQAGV
SIK1, sequence (P57059 whole entry, species assumed): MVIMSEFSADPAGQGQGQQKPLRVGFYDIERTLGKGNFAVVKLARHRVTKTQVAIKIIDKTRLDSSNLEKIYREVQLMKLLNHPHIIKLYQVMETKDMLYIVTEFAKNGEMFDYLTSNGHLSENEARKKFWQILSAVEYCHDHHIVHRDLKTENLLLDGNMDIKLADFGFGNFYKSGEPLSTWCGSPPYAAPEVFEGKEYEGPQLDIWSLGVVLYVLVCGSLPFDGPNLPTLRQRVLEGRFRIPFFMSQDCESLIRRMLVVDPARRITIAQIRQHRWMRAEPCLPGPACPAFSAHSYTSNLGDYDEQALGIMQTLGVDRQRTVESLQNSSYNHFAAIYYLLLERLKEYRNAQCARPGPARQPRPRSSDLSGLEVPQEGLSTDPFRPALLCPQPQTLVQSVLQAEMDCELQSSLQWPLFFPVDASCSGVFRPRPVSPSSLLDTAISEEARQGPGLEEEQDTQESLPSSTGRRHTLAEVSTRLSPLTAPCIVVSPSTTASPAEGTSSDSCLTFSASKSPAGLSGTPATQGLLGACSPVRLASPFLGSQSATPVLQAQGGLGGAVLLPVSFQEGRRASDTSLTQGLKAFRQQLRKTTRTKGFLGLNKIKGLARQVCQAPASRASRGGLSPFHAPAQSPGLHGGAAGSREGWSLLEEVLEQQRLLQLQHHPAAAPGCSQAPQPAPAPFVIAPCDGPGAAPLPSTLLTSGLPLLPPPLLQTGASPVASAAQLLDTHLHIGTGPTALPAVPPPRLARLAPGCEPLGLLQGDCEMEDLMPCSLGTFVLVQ

Regarding `COc1cccc2ncc(-c3cc(OCC4(N)CCCCC4)c(C#N)c(SC)c3)n12` [Example 29, 2-((1-Aminocyclohexyl)methoxy)-4-(5-methoxyimidazo[1,2-a]pyridin-3-yl)-6 (methylthio)benzonitrile], the IC50 is 11.4 nM in assay [1], 2.4 nM in assay [2], 2.9 nM in assay [4] and 29.1 nM in assay [5]. For the same compound, the EC50 in assay [3] came out at 75 nM.
For `CSc1cc(-c2cnc3cccc(C#N)n23)cc(OCC2(N)CCCC2)c1C#N` [Example 36, 3-(3-((1-Aminocyclopentyl)methoxy)-4-cyano-5-(methylthio)phenyl)imidazo[1,2-a]pyridine-5-carbonitrile], in that order: 2.1 nM, 1.2 nM, 0.8 nM, 4.8 nM and 35 nM.
For `CCOC(=O)c1cc(C#N)n2c(-c3cc(OCC4(N)CCCC4)c(C#N)c(SC)c3)cnc2c1` [Example 38, Ethyl 3-(3-((1-aminocyclopentyl)methoxy)-4-cyano-5-(methylthio)phenyl)-5-cyanoimidazo[1,2-a]pyridine-7-carboxylate], in that order: 1.8 nM, 1.5 nM, 1 nM, 20.1 nM and 51 nM.
For `COc1ccc2ncc(-c3cc(OCC4(N)CCCC4)c(C#N)c(SC)c3)n2c1C#N` [Example 39, 3-(3-((1-Aminocyclopentyl)methoxy)-4-cyano-5-(methylthio)phenyl)-6-methoxyimidazo[1,2-a]pyridine-5-carbonitrile], in that order: 1.1 nM, 0.5 nM, 1 nM, 6 nM and 25 nM.
On to `CSc1cc(-c2cnc3ccc(C)c(C#N)n23)cc(OCC2(N)CCCC2)c1C#N` [Example 40, 3-(3-((1-Aminocyclopentyl)methoxy)-4-cyano-5-(methylthio)phenyl)-6-methylimidazo[1,2-a]pyridine-5-carbonitrile], for which the IC50 in assay [1] was 1.6 nM; in assay [2] it was 0.4 nM; in assay [4], 0.6 nM; in assay [5], 6.1 nM. The compound further came in with an EC50 in assay [3] of 17 nM.
For the compound `CSc1cc(-c2cnc3cc(C)cc(C#N)n23)cc(OCC2(N)CCCC2)c1C#N` [Example 41, 3-(3-((1-Aminocyclopentyl)methoxy)-4-cyano-5-(methylthio)phenyl)-7-methylimidazo[1,2-a]pyridine-5-carbonitrile], the IC50 was found to be 0.7 nM in assay [1], 1.9 nM in assay [2], 0.8 nM in assay [4] and 5.3 nM in assay [5]. In addition, the response in assay [3] was half-maximal at 54 nM (EC50).
For `CSc1cc(-c2cnc3cc(Cl)cc(C#N)n23)cc(OCC2(N)CCCC2)c1C#N` [Example 42, 3-(3-((1-Aminocyclopentyl)methoxy)-4-cyano-5-(methylthio)phenyl)-7-chloroimidazo[1,2-a]pyridine-5-carbonitrile], in that order: 2.2 nM, 3 nM, 0.9 nM, 10.7 nM and 85 nM.
The corresponding values for `CSc1cc(-c2cnc3ccc(N(C)C)c(C#N)n23)cc(OCC2(N)CCCC2)c1C#N` [Example 43, 3-(3-((1-Aminocyclopentyl)methoxy)-4-cyano-5-(methylthio)phenyl)-6-(dimethylamino)imidazo[1,2-a]pyridine-5-carbonitrile] are 1.1 nM, 0.2 nM, 0.4 nM, 0.6 nM and 2 nM.
The corresponding values for `CCc1ccc2ncc(-c3cc(OCC4(N)CCCC4)c(C#N)c(SC)c3)n2c1C#N` [Example 44, 3-(3-((1-Aminocyclopentyl)methoxy)-4-cyano-5-(methylthio)phenyl)-6-ethylimidazo[1,2-a]pyridine-5-carbonitrile] are 2.1 nM, 2.3 nM, 1.7 nM, 21 nM and 38 nM.
For the compound `CSc1cc(-c2cnc3ccc(N)c(C#N)n23)cc(OCC2(N)CCCC2)c1C#N` [Example 45, 6-Amino-3-(3-((1-aminocyclopentyl)methoxy)-4-cyano-5-(methylthio)phenyl)imidazo[1,2-a]pyridine-5-carbonitrile], the IC50 in assay [1] was 0.4 nM; in assay [2] it was 0.1 nM; in assay [4] it was 0.2 nM; in assay [5], 0.6 nM. In assay [3], this compound had an EC50 of 3 nM.
The corresponding values for `CSc1cc(-c2cnc3ccc(N4CCC4)c(C#N)n23)cc(OCC2(N)CCCC2)c1C#N` [Example 46, 3-(3-((1-Aminocyclopentyl)methoxy)-4-cyano-5-(methylthio)phenyl)-6-(azetidin-1-yl)imidazo[1,2-a]pyridine-5-carbonitrile] are 2.8 nM, 0.8 nM, 1.5 nM, 6.9 nM and 28 nM.
The corresponding values for `CSc1cc(-c2cnc3ccc(N4CCCC4)c(C#N)n23)cc(OCC2(N)CCCC2)c1C#N` [Example 47, 3-(3-((1-Aminocyclopentyl)methoxy)-4-cyano-5-(methylthio)phenyl)-6-(pyrrolidin-1-yl)imidazo[1,2-a]pyridine-5-carbonitrile] are 0.9 nM, 0.2 nM, 0.4 nM, 1.4 nM and 6 nM.
For `COc1cc(-c2cnc3ccc(N(C)C)c(C#N)n23)cc(OCC2(N)CCCC2)c1C#N` [Example 48, 3-(3-((1-Aminocyclopentyl)methoxy)-4-cyano-5-methoxyphenyl)-6-(dimethylamino)imidazo[1,2-a]pyridine-5-carbonitrile], in that order: 1.7 nM, 0.4 nM, 0.7 nM, 0.8 nM and 4 nM.
As to `COc1ccc2ncc(-c3cc(OCC4(N)CCCCC4)c(C#N)c(SC)c3)n2c1C#N` [Example 49, 3-(3-((1-Aminocyclohexyl)methoxy)-4-cyano-5-(methylthio)phenyl)-6-methoxyimidazo[1,2-a]pyridine-5-carbonitrile], the IC50 was 2.4 nM in assay [1], 0.9 nM in assay [2], 0.7 nM in assay [4] and 6.5 nM in assay [5]. Besides, the EC50 in assay [3] turned out to be 18 nM.
The corresponding values for `COc1cc(C#N)n2c(-c3cc(OCC4(N)CCCC4)c(C#N)c(SC)c3)cnc2c1` [Example 50, 3-(3-((1-Aminocyclopentyl)methoxy)-4-cyano-5-(methylthio)phenyl)-7-methoxyimidazo[1,2-a]pyridine-5-carbonitrile] are 0.8 nM, 1.2 nM, 0.5 nM, 4.2 nM and 29 nM.
For `COc1cc(C#N)n2c(-c3cc(OCC4(N)CCCCC4)c(C#N)c(SC)c3)cnc2c1` [Example 51, 3-(3-((1-Aminocyclohexyl)methoxy)-4-cyano-5-(methylthio)phenyl)-7-methoxyimidazo[1,2-a]pyridine-5-carbonitrile], in that order: 1.6 nM, 1.5 nM, 0.5 nM, 5.7 nM and 26 nM.
